Source: ChEMBL document CHEMBL5625206, “Design, synthesis, and evaluation of novel pleuromutilin aryl acrylate derivatives as promising broad-spectrum antibiotics especially for combatting multi-drug resistant gram-negative bacteria” (Eur J Med Chem, 2023)
Values after ≈ are worked out from the molar mass of the structure shown. Active and inactive are the calls of the source. The rule behind the calls is not given here.

Assays:
[1] = test system: Staphylococcus epidermidis; experiment: Antibacterial activity against Staphylococcus epidermidis ATCC 12228 assessed as bacterial growth inhibition incubated for 24 hrs by CLSI based broth microdilution method; type: functional
Staphylococcus aureus [2] = experiment: Antibacterial activity against Staphylococcus aureus ATCC 25923 assessed as bacterial growth inhibition incubated for 24 hrs by CLSI based broth microdilution method; type: functional
Staphylococcus aureus [3] = experiment: Antibacterial activity against Staphylococcus aureus ATCC 29213 assessed as bacterial growth inhibition incubated for 24 hrs by CLSI based broth microdilution method; type: functional
Staphylococcus aureus [4] = experiment: Antibacterial activity against methicillin-resistant Staphylococcus aureus ATCC 33591 assessed as bacterial growth inhibition incubated for 24 hrs by CLSI based broth microdilution method; type: functional
Escherichia coli = experiment: Antibacterial activity against Escherichia coli ATCC 25922 assessed as bacterial growth inhibition incubated for 24 hrs by CLSI based broth microdilution method; type: functional
Acinetobacter baumannii [5] = experiment: Antibacterial activity against Acinetobacter baumannii ATCC 19606 assessed as bacterial growth inhibition incubated for 24 hrs by CLSI based broth microdilution method; type: functional
Staphylococcus aureus [6] = experiment: Antibacterial activity against methicillin-resistant Staphylococcus aureus 171 clinical isolate assessed as bacterial growth inhibition incubated for 24 hrs by CLSI based broth microdilution method; type: functional
Staphylococcus aureus [7] = experiment: Antibacterial activity against methicillin-resistant Staphylococcus aureus 575 clinical isolate assessed as bacterial growth inhibition incubated for 24 hrs by CLSI based broth microdilution method; type: functional
Enterococcus = experiment: Antibacterial activity against vancomycin-resistant Enterococcus 80 clinical isolate assessed as bacterial growth inhibition incubated for 24 hrs by CLSI based broth microdilution method; type: functional
Pseudomonas aeruginosa = experiment: Antibacterial activity against multidrug-resistant Pseudomonas aeruginosa 126 clinical isolate assessed as bacterial growth inhibition incubated for 24 hrs by CLSI based broth microdilution method; type: functional
Klebsiella pneumoniae = experiment: Antibacterial activity against multidrug-resistant Klebsiella pneumoniae 893 clinical isolate assessed as bacterial growth inhibition incubated for 24 hrs by CLSI based broth microdilution method; type: functional
Acinetobacter baumannii [8] = experiment: Antibacterial activity against carbapenem-resistant Acinetobacter baumannii 882 clinical isolate assessed as bacterial growth inhibition incubated for 24 hrs by CLSI based broth microdilution method; type: functional
[9] = Cytotoxicity against human HepG2 cells incubated for 24 hrs by CCK8 assay; type: toxicity, cell-based
[10] = Cytotoxicity against HEK293 cells incubated for 24 hrs by CCK8 assay; type: toxicity, cell-based; conditions: human
[11] = Cytotoxicity against human A549 cells incubated for 24 hrs by CCK8 assay; type: toxicity, cell-based
Staphylococcus aureus [12] = experiment: Bactericidal activity against methicillin-resistant Staphylococcus aureus ATCC 33591 at MIC incubated for 24 hrs by time kill assay relative to control; type: functional
Staphylococcus aureus [13] = experiment: Bactericidal activity against methicillin-resistant Staphylococcus aureus ATCC 33591 at 2 to 4 times MIC incubated for 24 hrs by time kill assay relative to control; type: functional
[14] = test system: Mesomycoplasma hyopneumoniae; experiment: Anti-mycoplasma activity against Mycoplasma hyopneumoniae J-NCYC10110 assessed as bacterial growth inhibition incubated for 7 days; type: functional; conditions: J-NCYC10110, 168 h, time 7 day
[15] = test system: Mesomycoplasma hyopneumoniae; experiment: Anti-mycoplasma activity against Mycoplasma hyopneumoniae LH-NCTC10130 assessed as bacterial growth inhibition incubated for 7 days; type: functional; conditions: time 7 day
Mesomycoplasma hyorhinis = experiment: Anti-mycoplasma activity against Mycoplasma hyorhinis BTS-7-NCTC10130 assessed as bacterial growth inhibition incubated for 7 days; type: functional; conditions: BTS-7-NCTC10130, 168 h, time 7 day
[16] = test system: Mycoplasmoides gallisepticum; experiment: Anti-mycoplasma activity against Mycoplasma gallisepticum MG-R-NCTC10115 assessed as bacterial growth inhibition incubated for 7 days; type: functional; conditions: MG-R-NCTC10115, 168 h, time 7 day
Mycoplasmopsis synoviae = experiment: Anti-mycoplasma activity against Mycoplasmopsis synoviae MS-MVU1852-NCTC10124 assessed as bacterial growth inhibition incubated for 7 days; type: functional; conditions: MS-MVU1852-NCTC10124, 168 h, time 7 day
[17] = Toxicity in neutropenic Kunming mouse model infected with methicillin-resistant Staphylococcus aureus ATCC 33591 assessed as survival rate at 5 mg/kg, ip measured after 7 days relative to control; type: organism-based; conditions: in vivo, 168 h, time 7 day
[18] = Toxicity in neutropenic Kunming mouse model infected with methicillin-resistant Staphylococcus aureus ATCC 33591 assessed as survival rate at 10 mg/kg, ip measured after 7 days relative to control; type: organism-based; conditions: in vivo, 168 h, time 7 day
[19] = Toxicity in neutropenic Kunming mouse model infected with methicillin-resistant Staphylococcus aureus ATCC 33591 assessed as survival rate at 20 mg/kg, ip measured after 7 days relative to control; type: organism-based; conditions: in vivo, 168 h, time 7 day
Staphylococcus aureus [20] = experiment: Antibacterial activity against methicillin-resistant Staphylococcus aureus ATCC 33591 infected in neutropenic Kunming mouse model administered intraperitoneally measured after 7 days; type: functional; conditions: ATCC 33591, 168 h, route ip, time 7 day
Staphylococcus aureus [21] = experiment: Antibacterial activity against methicillin-resistant Staphylococcus aureus ATCC 33591 infected in neutropenic Kunming mouse model assessed as bacterial load reduction in lung at 10 to 20 mg/kg, ip measured after 2 days; type: functional, organism-based; conditions: dose 10-20 mg/kg, time 2.0 day
Staphylococcus aureus [22] = experiment: Antibacterial activity against methicillin-resistant Staphylococcus aureus ATCC 33591 infected in neutropenic Kunming mouse model assessed as bacterial load reduction in kidney at 10 to 20 mg/kg, ip measured after 2 days; type: functional, organism-based; conditions: dose 10-20 mg/kg, time 2.0 day
Staphylococcus aureus [23] = experiment: Antibacterial activity against methicillin-resistant Staphylococcus aureus ATCC 33591 infected in neutropenic Kunming mouse model assessed as bacterial load reduction in liver at 10 to 20 mg/kg, ip measured after 2 days; type: functional, organism-based; conditions: dose 10-20 mg/kg, time 2.0 day
Staphylococcus aureus [24] = experiment: Antibacterial activity against methicillin-resistant Staphylococcus aureus ATCC 33591 infected in neutropenic Kunming mouse model assessed as reduction in infection-induced inflammatory cell inflammation in lung at 10 mg/kg, ip measured after 7 days; type: functional, organism-based; conditions: time 7.0 day
Staphylococcus aureus [25] = experiment: Antibacterial activity against methicillin-resistant Staphylococcus aureus ATCC 33591 infected in neutropenic Kunming mouse model assessed as reduction in infection-induced inflammatory cell inflammation in kidney at 10 mg/kg, ip measured after 7 days; type: functional, organism-based; conditions: time 7.0 day
Staphylococcus aureus [26] = experiment: Antibacterial activity against methicillin-resistant Staphylococcus aureus ATCC 33591 infected in neutropenic Kunming mouse model assessed as reduction in infection-induced inflammatory cell inflammation in liver at 10 mg/kg, ip measured after 7 days; type: functional, organism-based; conditions: time 7.0 day

| Compound | MIC [1] [µg/mL] | MIC (Staphylococcus aureus [2]) [µg/mL] | MIC (Staphylococcus aureus [3]) [µg/mL] | MIC (Staphylococcus aureus [4]) [µg/mL] | MIC (Escherichia coli) [µg/mL] | MIC (Acinetobacter baumannii [5]) [µg/mL] | MIC (Staphylococcus aureus [6]) [µg/mL] | MIC (Staphylococcus aureus [7]) [µg/mL] | MIC (Enterococcus) [µg/mL] | MIC (Pseudomonas aeruginosa) [µg/mL] | MIC (Klebsiella pneumoniae) [µg/mL] | MIC (Acinetobacter baumannii [8]) [µg/mL] | CC50 at 24 h [9] [µM] | CC50 at 24 h [10] [µM] | CC50 at 24 h [11] [µM] | other results |
| --- | --- | --- | --- | --- | --- | --- | --- | --- | --- | --- | --- | --- | --- | --- | --- | --- |
| C=C[C@]1(C)C[C@@H](OC(=O)COC(=O)/C=C/c2cccnc2)[C@]2(C)[C@H](C)CC[C@]3(CCC(=O)[C@H]32)[C@@H](C)[C@@H]1O | 2 (≈ 3.92 µM) | 2 (≈ 3.92 µM) | 8 (≈ 15.7 µM) | 16 (≈ 31.4 µM) | 16 (≈ 31.4 µM) | 32 (≈ 62.8 µM) | 32 (≈ 62.8 µM) | 64 (≈ 126 µM) | 32 (≈ 62.8 µM) | 16 (≈ 31.4 µM) | 64 (≈ 126 µM) | > 128 | 80.6 | 28.6 | 63.4 | – |
| C=C[C@]1(C)C[C@@H](OC(=O)COC(=O)/C=C/c2ccc([N+](=O)[O-])cc2)[C@]2(C)[C@H](C)CC[C@]3(CCC(=O)[C@H]32)[C@@H](C)[C@@H]1O | 2 (≈ 3.61 µM) | 8 (≈ 14.4 µM) | 2 (≈ 3.61 µM) | 4 (≈ 7.22 µM) | 32 (≈ 57.8 µM) | 64 (≈ 116 µM) | 16 (≈ 28.9 µM) | 16 (≈ 28.9 µM) | 8 (≈ 14.4 µM) | 64 (≈ 116 µM) | 128 (≈ 231 µM) | 128 (≈ 231 µM) | > 200 | > 200 | > 200 | – |
| C=C[C@]1(C)C[C@@H](OC(=O)COC(=O)/C=C/c2cccc(C#N)c2)[C@]2(C)[C@H](C)CC[C@]3(CCC(=O)[C@H]32)[C@@H](C)[C@@H]1O | 2 (≈ 3.75 µM) | 2 (≈ 3.75 µM) | 8 (≈ 15 µM) | 16 (≈ 30 µM) | 64 (≈ 120 µM) | 128 (≈ 240 µM) | 32 (≈ 60 µM) | 64 (≈ 120 µM) | 16 (≈ 30 µM) | 128 (≈ 240 µM) | 128 (≈ 240 µM) | > 128 | 78.5 | 29.2 | > 200 | – |
| C=C[C@]1(C)C[C@@H](OC(=O)CS[C@@H]2C[C@H]3CC[C@@H](C2)N3C)[C@]2(C)[C@H](C)CC[C@]3(CCC(=O)[C@H]32)[C@@H](C)[C@@H]1O [RETAPAMULIN] | 32 (≈ 61.8 µM) | 4 (≈ 7.73 µM) | 4 (≈ 7.73 µM) | 32 (≈ 61.8 µM) | 16 (≈ 30.9 µM) | 16 (≈ 30.9 µM) | 128 (≈ 247 µM) | 64 (≈ 124 µM) | > 128 | 128 (≈ 247 µM) | 64 (≈ 124 µM) | 64 (≈ 124 µM) | 36.5 | 62.9 | 74.2 | Activity (Staphylococcus aureus [12]): 44.49%; Activity (Staphylococcus aureus [13]): 100% |
| C=C[C@]1(C)C[C@@H](OC(=O)CSCCN(CC)CC)[C@]2(C)[C@H](C)CC[C@]3(CCC(=O)[C@H]32)[C@@H](C)[C@@H]1O [TIAMULIN] | 16 (≈ 32.4 µM) | 64 (≈ 130 µM) | > 128 | 128 (≈ 259 µM) | 64 (≈ 130 µM) | 64 (≈ 130 µM) | – | – | – | – | – | – | – | – | – | MIC [14]: 0.03 µg/mL (≈ 0.0608 µM); MIC ([15]; Mesomycoplasma hyopneumoniae, LH-NCTC10130, 168 h, read-out: MIC): 0.015 µg/mL (≈ 0.0304 µM); MIC (Mesomycoplasma hyorhinis): 0.03 µg/mL (≈ 0.0608 µM); MIC [16]: 0.125 µg/mL (≈ 0.253 µM); MIC (Mycoplasmopsis synoviae): 2 µg/mL (≈ 4.05 µM) |
| C=C[C@]1(C)C[C@@H](OC(=O)COC(=O)/C(C#N)=C/c2ccccc2)[C@]2(C)[C@H](C)CC[C@]3(CCC(=O)[C@H]32)[C@@H](C)[C@@H]1O | 8 (≈ 15 µM) | 4 (≈ 7.5 µM) | 8 (≈ 15 µM) | 32 (≈ 60 µM) | 8 (≈ 15 µM) | 4 (≈ 7.5 µM) | 64 (≈ 120 µM) | > 128 | 8 (≈ 15 µM) | 64 (≈ 120 µM) | 32 (≈ 60 µM) | 8 (≈ 15 µM) | > 200 | > 200 | > 200 | – |
| C=C[C@]1(C)C[C@@H](OC(=O)CSC(C)(C)CNC(=O)[C@H](N)C(C)C)[C@]2(C)[C@H](C)CC[C@]3(CCC(=O)[C@H]32)[C@@H](C)[C@@H]1O [VALNEMULIN] | 64 (≈ 113 µM) | 4 (≈ 7.08 µM) | 2 (≈ 3.54 µM) | > 128 | 2 (≈ 3.54 µM) | 2 (≈ 3.54 µM) | 128 (≈ 227 µM) | 128 (≈ 227 µM) | 128 (≈ 227 µM) | 64 (≈ 113 µM) | 128 (≈ 227 µM) | 64 (≈ 113 µM) | 37.3 | 31.1 | 46.2 | MIC [14]: 0.001 µg/mL (≈ 0.00177 µM); MIC [15]: 0.3 10^-4 ug/ml; MIC (Mesomycoplasma hyorhinis): 0.001 µg/mL (≈ 0.00177 µM); MIC [16]: 0.001 µg/mL (≈ 0.00177 µM); MIC (Mycoplasmopsis synoviae): 0.015 µg/mL (≈ 0.0266 µM); Survival [17]: 20%; Survival [18]: 40%; Survival [19]: 70%; ED50 (Staphylococcus aureus [20]): 14 mg/kg; Activity (Staphylococcus aureus [21]): Active; Activity (Staphylococcus aureus [22]): Active; Activity (Staphylococcus aureus [23]): Active; Activity (Staphylococcus aureus [24]): inactive; Activity (Staphylococcus aureus [25]): inactive; Activity (Staphylococcus aureus [26]): inactive |
